Test results: patent US10934303B2, “Aryl ethene derivative and pharmaceutical composition containing same as active ingredient” (priority 2016, dated 2021)
pIC50: −log10 of the molar value.

How the values were obtained:
in vitro = in vitro ADME; conditions: PBS pH 7.4, 25° C., 5 hours
[1] = molecular target: GST-bound ER alpha ligand-binding domain (LBD) (Homo sapiens (Human), UniProt P03372); assay: biochemical; conditions: TR-FRET, beta-estradiol 4 nM as agonist; read-out: Binding Assay, IC50 ERα
GST-bound ER alpha ligand-binding domain (LBD), sequence (P03372 whole entry, looked up, the tested form may be a part): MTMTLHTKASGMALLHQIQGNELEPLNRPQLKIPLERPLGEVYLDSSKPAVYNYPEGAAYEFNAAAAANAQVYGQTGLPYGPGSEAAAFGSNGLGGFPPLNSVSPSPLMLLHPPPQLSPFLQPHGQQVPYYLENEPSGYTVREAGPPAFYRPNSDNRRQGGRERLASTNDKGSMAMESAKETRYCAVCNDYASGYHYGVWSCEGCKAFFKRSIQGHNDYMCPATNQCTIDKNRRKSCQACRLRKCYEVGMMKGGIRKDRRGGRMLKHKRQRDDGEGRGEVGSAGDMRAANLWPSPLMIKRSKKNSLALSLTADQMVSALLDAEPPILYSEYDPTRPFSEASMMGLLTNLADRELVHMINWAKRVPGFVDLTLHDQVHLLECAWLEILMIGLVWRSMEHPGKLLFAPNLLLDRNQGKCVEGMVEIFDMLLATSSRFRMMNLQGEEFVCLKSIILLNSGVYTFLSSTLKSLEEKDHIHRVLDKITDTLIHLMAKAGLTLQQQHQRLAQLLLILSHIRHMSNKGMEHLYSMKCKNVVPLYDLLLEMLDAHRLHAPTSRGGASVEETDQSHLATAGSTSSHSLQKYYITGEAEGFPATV
Description: (§2) The arylethene derivative of the present invention was sequentially added to a 384 well plate from a concentration of 10 μM to a final concentration of two-fold dilution. […] After all reagents were added, a reaction was carried out with gentle shaking at 20° C. for 1 hour, and after the reaction, a binding activity was measured by a TR-FRET method.

[2] = molecular target: GST-bound ERR gamma ligand-binding domain (LBD) (Homo sapiens (Human), UniProt P62508); assay: ERRγ binding assay (inverse agonist assay), TR-FRET; conditions: TR-FRET, PGC1a coactivator; read-out: Binding Assay, IC50 ERRγ
GST-bound ERR gamma ligand-binding domain (LBD), sequence (P62508 233-457): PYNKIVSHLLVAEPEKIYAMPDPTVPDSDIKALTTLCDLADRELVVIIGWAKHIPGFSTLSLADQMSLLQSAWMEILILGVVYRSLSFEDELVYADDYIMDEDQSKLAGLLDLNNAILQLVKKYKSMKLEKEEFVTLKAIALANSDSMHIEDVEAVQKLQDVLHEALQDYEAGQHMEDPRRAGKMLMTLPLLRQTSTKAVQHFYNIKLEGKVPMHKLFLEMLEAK
Description: 1) ERRγ Binding Assay (Inverse Agonist Assay)
as §2

hERG channel = hERG channel (Homo sapiens (Human), UniProt Q12809); conditions: read-out: hERG IC50; fluorescence polarization assay
GST-bound ERR alpha LBD = GST-bound ERR alpha LBD (Homo sapiens (Human), UniProt P11474); conditions: TR-FRET, PGC1a coactivator; read-out: Binding Assay, IC50 ERRα
GST-bound ERR alpha LBD, sequence (P11474 193-421): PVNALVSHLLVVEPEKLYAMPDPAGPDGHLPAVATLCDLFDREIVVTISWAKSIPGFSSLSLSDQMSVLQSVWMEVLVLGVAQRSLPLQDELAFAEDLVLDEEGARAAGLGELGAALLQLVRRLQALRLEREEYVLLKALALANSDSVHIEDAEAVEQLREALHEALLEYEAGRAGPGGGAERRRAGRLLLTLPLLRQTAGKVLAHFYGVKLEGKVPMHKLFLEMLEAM
Description: as §2

ERRγ = format: cell-based; conditions: for Functional Assay at 10 μM (% of control), Cpds: 24 hours, AD293; for Functional Assay, Cpds/Ref 5182: activity relative to reference compound GSK5182, 10 μM
Description: AD293 was cultured in a 24-well plate for 24 hours, using a DMEM High glucose culture medium (Hyclone, USA) to which 0.5% FBS was added at a concentration of 9×10^4/well. The culture medium was replaced with a DMEM High glucose culture medium to which 10% FBS was added, treatment was performed with a mixture of a TransIT-LT1 transfection reagent (Mirus, USA) and pCMX-Gal4-ERRγ, pFR-luciferase reporter plasmid, pCMV-β-gal, and culturing was performed for 24 hours. Thereafter, a luciferase activity assay and a β-gal assay were performed, respectively, with a lysate obtained after treatment with the arylethene derivative of the present invention for 24 hours. All results were derived from three or more independent repetitive experiments.

CYP2D6 = CYP2D6 (Homo sapiens (Human), UniProt P10635); assay: Cytochrome P450 activity inhibition, CYP2D6; format: in vitro ADME; conditions: 10 μM, human liver microsomes, Dextromethorphan substrate
CYP2D6, sequence (P10635 whole entry): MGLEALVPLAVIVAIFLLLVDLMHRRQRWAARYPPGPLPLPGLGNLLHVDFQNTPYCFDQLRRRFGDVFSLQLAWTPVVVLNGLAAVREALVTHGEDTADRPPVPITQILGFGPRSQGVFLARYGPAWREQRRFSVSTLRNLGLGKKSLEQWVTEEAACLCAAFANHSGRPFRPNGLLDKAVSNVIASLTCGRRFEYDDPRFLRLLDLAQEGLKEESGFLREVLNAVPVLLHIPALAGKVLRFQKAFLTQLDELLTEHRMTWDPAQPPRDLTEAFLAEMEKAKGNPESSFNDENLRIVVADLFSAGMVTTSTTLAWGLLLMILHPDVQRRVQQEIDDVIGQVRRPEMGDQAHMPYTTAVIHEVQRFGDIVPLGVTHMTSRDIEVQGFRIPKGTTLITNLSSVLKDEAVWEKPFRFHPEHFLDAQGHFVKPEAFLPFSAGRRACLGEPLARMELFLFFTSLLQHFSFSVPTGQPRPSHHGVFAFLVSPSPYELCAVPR
Description: (§1) 1) Cytochrome P450 (CYP450) Activity Inhibition Evaluation

[3] = 1 μM, 30 minutes, 37° C., NADPH
Description: 2) Microsomal Stability Evaluation
(§3) Four liver microsomes (Human, Dog, Rat, Mouse 0.5 mg/ml) with a 0.1 M phosphate buffer solution (pH 7.4), and the arylethene derivative of the present invention were added to a concentration of 1 μM, culturing was performed at 37° C. for 5 minutes in advance, a NADPH regeneration system solution was added thereto, and culturing was performed at 37° C. for 30 minutes. Thereafter, in order to complete the reaction, an acetonitrile solution containing an internal standard material (chlorpropamide) was added thereto, centrifugation (14,000 rpm, 4° C.) was performed for 5 minutes, and a supernatant was injected into a LC-MS/MS system to analyze the substrate drug, thereby evaluating metabolism stability to the arylethene derivative of the present invention.

[4] = 1 μM, 30 minutes, 37° C., NADPH; remark: listed apart in the source
CYP2C19 = CYP2C19 (Homo sapiens (Human), UniProt P33261); assay: Cytochrome P450 activity inhibition, CYP2C19; format: in vitro ADME; conditions: 10 μM, human liver microsomes, S-mephenytoin substrate
CYP2C19, sequence (P33261 whole entry): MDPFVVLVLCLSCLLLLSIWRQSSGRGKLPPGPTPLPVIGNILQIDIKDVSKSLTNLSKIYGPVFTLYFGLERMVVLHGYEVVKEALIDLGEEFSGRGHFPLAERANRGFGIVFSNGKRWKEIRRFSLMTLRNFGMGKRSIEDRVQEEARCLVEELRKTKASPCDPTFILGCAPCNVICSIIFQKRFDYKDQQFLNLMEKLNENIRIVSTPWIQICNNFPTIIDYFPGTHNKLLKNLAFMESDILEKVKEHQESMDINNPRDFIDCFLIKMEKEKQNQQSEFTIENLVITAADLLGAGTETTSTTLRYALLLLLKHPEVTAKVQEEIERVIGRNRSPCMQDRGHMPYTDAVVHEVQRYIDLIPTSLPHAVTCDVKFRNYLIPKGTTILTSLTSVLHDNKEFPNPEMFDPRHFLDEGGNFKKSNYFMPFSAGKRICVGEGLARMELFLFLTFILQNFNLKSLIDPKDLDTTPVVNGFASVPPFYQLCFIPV
Description: as §1

CYP2C9 = CYP2C9 (Homo sapiens (Human), UniProt P11712); assay: Cytochrome P450 activity inhibition, CYP2C9; format: in vitro ADME; conditions: 10 μM, human liver microsomes, Diclofenac substrate
CYP2C9, sequence (P11712 whole entry): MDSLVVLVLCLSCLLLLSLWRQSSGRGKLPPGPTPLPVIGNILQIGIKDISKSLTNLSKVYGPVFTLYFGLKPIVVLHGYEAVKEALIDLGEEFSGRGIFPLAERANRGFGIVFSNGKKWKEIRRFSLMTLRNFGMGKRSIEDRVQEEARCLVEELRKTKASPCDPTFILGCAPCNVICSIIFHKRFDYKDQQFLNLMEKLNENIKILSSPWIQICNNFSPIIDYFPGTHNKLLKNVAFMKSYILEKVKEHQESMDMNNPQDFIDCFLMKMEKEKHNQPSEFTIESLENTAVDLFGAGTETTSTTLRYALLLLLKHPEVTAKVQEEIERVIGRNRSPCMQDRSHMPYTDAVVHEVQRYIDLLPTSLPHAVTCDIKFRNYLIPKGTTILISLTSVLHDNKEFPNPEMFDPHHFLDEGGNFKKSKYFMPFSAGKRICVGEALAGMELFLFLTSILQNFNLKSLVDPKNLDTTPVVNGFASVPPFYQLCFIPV
Description: as §1

CYP3A4 = CYP3A4 (Homo sapiens (Human), UniProt P08684); assay: Cytochrome P450 activity inhibition, CYP3A4; format: in vitro ADME; conditions: 10 μM, human liver microsomes, Midazolam substrate
CYP3A4, sequence (P08684 whole entry): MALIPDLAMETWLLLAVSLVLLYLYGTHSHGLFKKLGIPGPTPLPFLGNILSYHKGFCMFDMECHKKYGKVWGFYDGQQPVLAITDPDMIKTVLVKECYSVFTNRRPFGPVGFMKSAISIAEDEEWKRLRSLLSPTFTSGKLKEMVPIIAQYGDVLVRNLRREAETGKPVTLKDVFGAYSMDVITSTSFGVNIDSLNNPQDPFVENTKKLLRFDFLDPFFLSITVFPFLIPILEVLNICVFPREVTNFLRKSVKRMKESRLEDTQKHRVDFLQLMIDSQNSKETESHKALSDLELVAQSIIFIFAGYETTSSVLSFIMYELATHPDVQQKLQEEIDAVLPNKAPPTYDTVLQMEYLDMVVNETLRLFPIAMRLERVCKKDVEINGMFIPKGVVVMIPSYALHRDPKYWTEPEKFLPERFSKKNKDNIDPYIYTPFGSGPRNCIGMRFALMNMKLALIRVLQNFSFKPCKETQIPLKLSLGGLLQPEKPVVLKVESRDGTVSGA
Description: as §1

CYP1A2 = CYP1A2 (Homo sapiens (Human), UniProt P05177); assay: Cytochrome P450 activity inhibition, CYP1A2; format: in vitro ADME; conditions: 10 μM, human liver microsomes, Phenacetin substrate
CYP1A2, sequence (P05177 whole entry): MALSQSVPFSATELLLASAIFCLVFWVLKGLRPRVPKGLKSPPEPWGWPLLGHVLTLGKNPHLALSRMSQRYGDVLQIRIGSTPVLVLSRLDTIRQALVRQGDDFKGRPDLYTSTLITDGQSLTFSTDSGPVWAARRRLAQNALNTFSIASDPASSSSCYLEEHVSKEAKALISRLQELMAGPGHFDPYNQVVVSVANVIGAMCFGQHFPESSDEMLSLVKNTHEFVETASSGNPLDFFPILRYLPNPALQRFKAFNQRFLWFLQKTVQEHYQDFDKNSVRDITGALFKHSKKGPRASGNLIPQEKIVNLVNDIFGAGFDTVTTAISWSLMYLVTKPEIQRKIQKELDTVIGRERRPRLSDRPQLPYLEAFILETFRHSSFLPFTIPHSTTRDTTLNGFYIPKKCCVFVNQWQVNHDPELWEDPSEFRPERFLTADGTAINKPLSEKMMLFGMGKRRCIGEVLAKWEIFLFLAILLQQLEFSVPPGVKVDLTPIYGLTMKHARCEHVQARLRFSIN
Description: as §1

in vivo = format: in vivo; conditions: rat; for Cmax: read-out: Cmax
Description: An oral administration group fasts the day before.
Blood of each animal is collected at 0 hour.
Into a tail vein of an intravenous administration group (IV), a drug is injected at a dose of 1 mg/kg (syringe).
To an oral administration group (PO), a drug is orally administered at a dose of 10 mg/kg (oral zondec)
After administration, blood of the intravenous administration group was collected through a jugular vein 8 times at 0.08, 0.25, 0.5, 1, 2, 4, 6, and 8 hours. One collected blood amount is 400 to 500 ul.
After administration, blood of the oral administration group was collected through a jugular vein 6 times at 0.25, 0.5, 1, 4, 6 and 8 hours. One collected blood amount is 400 to 500 ul.
Supernatant plasma is collected by a centrifuge.
The supernatant plasma was injected into a LC-MS/MS system and the drug is analyzed.

[5] = 1 μM, 30 minutes, 37° C., NADPH; remark: listed apart in the source
Description: 2) Microsomal Stability Evaluation
as §3

[6] = 1 μM, 30 minutes, 37° C., NADPH; remark: listed apart in the source
ERRβ = ERRβ (Homo sapiens, UniProt O95718); conditions: TR-FRET, PGC1a coactivator; read-out: Binding Assay, IC50 ERRβ
ERRβ, sequence (O95718 whole entry, looked up): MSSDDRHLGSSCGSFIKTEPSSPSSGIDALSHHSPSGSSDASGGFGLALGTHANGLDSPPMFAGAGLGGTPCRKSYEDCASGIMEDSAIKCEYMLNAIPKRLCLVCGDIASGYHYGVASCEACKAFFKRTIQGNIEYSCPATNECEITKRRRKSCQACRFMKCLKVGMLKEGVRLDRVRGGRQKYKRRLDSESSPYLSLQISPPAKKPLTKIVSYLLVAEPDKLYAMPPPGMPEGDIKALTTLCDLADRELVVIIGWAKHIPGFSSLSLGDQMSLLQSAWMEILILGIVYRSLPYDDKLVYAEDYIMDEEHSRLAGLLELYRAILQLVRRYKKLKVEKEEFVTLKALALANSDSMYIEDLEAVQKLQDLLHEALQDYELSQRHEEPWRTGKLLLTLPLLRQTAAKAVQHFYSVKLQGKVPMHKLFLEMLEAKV
Description: as §2

CCN1CCN(c2ccc(/C(=C(/CCCO)c3ccccc3)c3ccc(O)cc3)cc2)CC1 [Compound 18i]
Permeability Pampa (in vitro): 1.16 10^−6 cm/s | pIC50 [1]: 5.94 | pIC50 [2]: 7.30 | pIC50 (hERG channel): < 4.52 | pIC50 (GST-bound ERR alpha LBD): < 5.00 | Functional Assay at 10 μM (% of control), Cpds (ERRγ): 1.88 % of control | Functional Assay, Cpds/Ref 5182 (ERRγ): 0.97

Cc1ccc(/C(=C(\CCCO)c2ccccc2)c2ccc(N3CCN(C)CC3)cc2)cc1 [Compound 18f]
CYP inhibition (% of control) 2D6 (CYP2D6): 68.2 % of control | Permeability Pampa (in vitro): 4.84 10^−6 cm/s | pIC50 [1]: < 5.00 | MS(Microsomal Stability) (%) rat [3]: 65.7% | pIC50 (hERG channel): 4.72 | MS(Microsomal Stability) (%) mouse [4]: 47.6% | pIC50 (GST-bound ERR alpha LBD): < 5.00 | CYP inhibition (% of control) 2C19 (CYP2C19): 72.8 % of control | CYP inhibition (% of control) 2C9 (CYP2C9): 62.3 % of control | Functional Assay at 10 μM (% of control), Cpds (ERRγ): 2.57 % of control | Functional Assay, Cpds/Ref 5182 (ERRγ): 0.82 | CYP inhibition (% of control) 3A4 (CYP3A4): 70.9 % of control | CYP inhibition (% of control) 1A2 (CYP1A2): >100 % of control | AUCINF (in vivo; IV, 1 mg/kg): 0.29 μMh | AUCall (in vivo; IV, 1 mg/kg): 0.28 μMh | Vss (in vivo; IV, 1 mg/kg): 30.3 L/kg | t1/2 (in vivo; IV, 1 mg/kg): 2.5 h | AUCINF (in vivo; PO, 10 mg/kg): 7.00 μMh | AUCall (in vivo; PO, 10 mg/kg): 2.93 μMh | BA (in vivo; PO, 10 mg/kg): 41.2% | Tmax (in vivo; PO, 10 mg/kg): 2.4 h | Cmax (in vivo; PO, 10 mg/kg): 450 nM | MS(Microsomal Stability) (%) human [5]: 79.2%

CC(C)N1CCC(c2ccc(/C(=C(/CCCO)c3ccccc3)c3cccc(O)c3)cc2)CC1 [Compound 22m]
CYP inhibition (% of control) 2D6 (CYP2D6): 70.7 % of control | pIC50 [1]: < 5.00 | MS(Microsomal Stability) (%) dog [6]: 55.0% | MS(Microsomal Stability) (%) rat [3]: 53.5% | MS(Microsomal Stability) (%) mouse [4]: 24.2% | pIC50 (GST-bound ERR alpha LBD): < 5.00 | CYP inhibition (% of control) 2C19 (CYP2C19): >100 % of control | CYP inhibition (% of control) 2C9 (CYP2C9): 80.3 % of control | CYP inhibition (% of control) 3A4 (CYP3A4): 58.1 % of control | CYP inhibition (% of control) 1A2 (CYP1A2): 97 % of control | AUCINF (in vivo; IV, 1 mg/kg): 0.00 μMh | AUCall (in vivo; IV, 1 mg/kg): 0.34 μMh | Vss (in vivo; IV, 1 mg/kg): 19.9 L/kg | t1/2 (in vivo; IV, 1 mg/kg): 2.4 h | AUCINF (in vivo; PO, 10 mg/kg): 0.00 μMh | AUCall (in vivo; PO, 10 mg/kg): 0.73 μMh | BA (in vivo; PO, 10 mg/kg): 24.3% | Tmax (in vivo; PO, 10 mg/kg): 2.4 h | t1/2 (in vivo; PO, 10 mg/kg): 4.3 h | Cmax (in vivo; PO, 10 mg/kg): 130 nM | MS(Microsomal Stability) (%) human [5]: 55.3% | pIC50 (ERRβ): 5.11

Cc1ccc(/C(=C(\CCCO)c2ccccc2)c2ccc(N3CCNCC3)cc2)cc1 [Compound 20b]
Permeability Pampa (in vitro): 3.61 10^−6 cm/s | pIC50 [1]: < 5.00 | MS(Microsomal Stability) (%) dog [6]: 58% | MS(Microsomal Stability) (%) rat [3]: 71.5% | MS(Microsomal Stability) (%) mouse [4]: 28.8% | pIC50 (GST-bound ERR alpha LBD): < 5.00 | Functional Assay at 10 μM (% of control), Cpds (ERRγ): 3.58 % of control | Functional Assay, Cpds/Ref 5182 (ERRγ): 0.88 | MS(Microsomal Stability) (%) human [5]: 44% | pIC50 (ERRβ): 5.68

CC(C)(C)OC(=O)N1CCN(c2ccc(/C(=C(/CCCO)c3ccccc3)c3ccc(Br)cc3)cc2)CC1 [Compound 18n]
Permeability Pampa (in vitro): 0.63 10^−6 cm/s | pIC50 [1]: 5.06 | pIC50 (GST-bound ERR alpha LBD): 5.08 | Functional Assay at 10 μM (% of control), Cpds (ERRγ): 3.36 % of control | Functional Assay, Cpds/Ref 5182 (ERRγ): 0.82 | pIC50 (ERRβ): 5.96

CC(C)N1CCC(c2ccc(/C(=C(/CCCO)c3ccccc3)c3ccc(O)cc3)cc2)CC1 [Compound 22g]
pIC50 [1]: 5.36 | MS(Microsomal Stability) (%) dog [6]: 54.3% | MS(Microsomal Stability) (%) rat [3]: 43.2% | pIC50 (hERG channel): 4.66 | MS(Microsomal Stability) (%) mouse [4]: 10.7% | pIC50 (GST-bound ERR alpha LBD): < 5.00 | MS(Microsomal Stability) (%) human [5]: 42.8%

OCCC/C(=C(\c1ccc(O)cc1)c1ccc(C2CCN(C3CC3)C2)cc1)c1ccccc1 (centres unmarked) [Compound 22t]
pIC50 [1]: 5.23 | pIC50 (GST-bound ERR alpha LBD): < 5.00 | Functional Assay at 10 μM (% of control), Cpds (ERRγ): 6.19 % of control | pIC50 (ERRβ): 5.45

Cc1ccc(/C(=C(\CCCO)c2ccccc2)c2ccc(N3CCN(C(C)C)CC3)cc2)cc1 [Compound 18b]
CYP inhibition (% of control) 2D6 (CYP2D6): 68.9 % of control | Permeability Pampa (in vitro): 2.09 10^−6 cm/s | pIC50 [1]: < 5.00 | MS(Microsomal Stability) (%) rat [3]: 40.0% | pIC50 (hERG channel): < 4.52 | MS(Microsomal Stability) (%) mouse [4]: 19.7% | pIC50 (GST-bound ERR alpha LBD): < 5.00 | CYP inhibition (% of control) 2C19 (CYP2C19): 69.7 % of control | CYP inhibition (% of control) 2C9 (CYP2C9): 73.4 % of control | Functional Assay at 10 μM (% of control), Cpds (ERRγ): 2.45 % of control | Functional Assay, Cpds/Ref 5182 (ERRγ): 0.78 | CYP inhibition (% of control) 3A4 (CYP3A4): 53 % of control | CYP inhibition (% of control) 1A2 (CYP1A2): 89.8 % of control | AUCINF (in vivo; IV, 1 mg/kg): 0.64 μMh | AUCall (in vivo; IV, 1 mg/kg): 0.58 μMh | Vss (in vivo; IV, 1 mg/kg): 9.8 L/kg | t1/2 (in vivo; IV, 1 mg/kg): 3.1 h | AUCINF (in vivo; PO, 10 mg/kg): 0.36 μMh | AUCall (in vivo; PO, 10 mg/kg): 0.31 μMh | BA (in vivo; PO, 10 mg/kg): 8.7% | Tmax (in vivo; PO, 10 mg/kg): 0.6 h | Cmax (in vivo; PO, 10 mg/kg): 120 nM | MS(Microsomal Stability) (%) human [5]: 54.2%

OCCC/C(=C(\c1ccc(O)cc1)c1ccc(N2CCNCC2)cc1)c1ccccc1 [Compound 20j]
CYP inhibition (% of control) 2D6 (CYP2D6): 89.3 % of control | pIC50 [1]: 6.00 | MS(Microsomal Stability) (%) dog [6]: 68.3% | MS(Microsomal Stability) (%) rat [3]: 84.5% | MS(Microsomal Stability) (%) mouse [4]: 25.3% | pIC50 (GST-bound ERR alpha LBD): < 5.00 | CYP inhibition (% of control) 2C19 (CYP2C19): 62 % of control | CYP inhibition (% of control) 2C9 (CYP2C9): 77.1 % of control | Functional Assay at 10 μM (% of control), Cpds (ERRγ): 1.41 % of control | Functional Assay, Cpds/Ref 5182 (ERRγ): 1.38 | CYP inhibition (% of control) 3A4 (CYP3A4): 66.2 % of control | CYP inhibition (% of control) 1A2 (CYP1A2): 93.6 % of control | MS(Microsomal Stability) (%) human [5]: 76.8% | pIC50 (ERRβ): 5.31

CN1CCCC1CCOc1ccc(/C(=C(/CCCO)c2ccccc2)c2ccc(O)cc2)cc1 (centres unmarked) [Compound 6g]
pIC50 [1]: 6.48 | pIC50 [2]: 7.52 | pIC50 (hERG channel): 5.27 | pIC50 (GST-bound ERR alpha LBD): < 5.00 | Functional Assay at 10 μM (% of control), Cpds (ERRγ): 4.94 % of control | Functional Assay, Cpds/Ref 5182 (ERRγ): 1.60
